Values quoted from earlier work as cited in patent publication US5223503A, “6-substituted pyrido[2,3-d]pyrimidines as antineoplastic agents” (Eli Lilly and Company, priority 1992, dated 1993).

System: solid tumors
Settings: Proc. Amer. Assoc. Cancer Res., 31, 1053 (1990)

Structure (SMILES): Nc1nc2c(c(=O)[nH]1)CC(CCc1ccc(C(=O)N[C@@H](CCC(=O)O)C(=O)O)cc1)CN2 (stereo partly shown) [lometrexol, 5,10-dideazatetrahydrofolic acid]
- clinical efficacy against solid tumors: clinical efficacy against solid tumors
